Assay results reported in patent US10905123B2, “Herbicidal compounds” (Syngenta Participations AG, priority 2015, dated 2021).

Assays:
Assay type in all cases: in vivo
Details in all cases: Rate 1000 g/ha; evaluated after 13 days
[1] = test system: Alopecurus myosuroides (ALOMY); assay: B1 pre-emergence herbicidal activity
Procedure: (§1) Seeds of a variety of test species were sown in standard soil in pots: Triticum aestivium (TRZAW), Oryza sativa (ORYSA), Avena fatua (AVEFA), Alopecurus myosuroides (ALOMY), Echinochloa crus-galli (ECHCG), Lolium perenne (LOLPE). After cultivation for one day (pre-emergence) under controlled conditions in a glasshouse (at 24/16° C., day/night; 14 hours light; 65% humidity), the plants were sprayed with an aqueous spray solution derived from the formulation of the technical active ingredient in acetone/water (50:50) solution containing 0.5% Tween 20 (polyoxyethelyene sorbitan monolaurate, CAS RN 9005-64-5). The test plants were then grown in a glasshouse under controlled conditions (at 24/16° C., day/night; 14 hours light; 65% humidity) and watered twice daily. After 13 days, the test was evaluated (5=total damage to plant; 0=no damage to plant).

Avena fatua (AVEFA) [2] = assay: B1 pre-emergence herbicidal activity
Procedure: as §1

[3] = test system: Echinochloa crus-galli (ECHCG); assay: B1 pre-emergence herbicidal activity
Procedure: as §1

Lolium perenne (LOLPE) [4] = assay: B1 pre-emergence herbicidal activity
Procedure: as §1

Oryza sativa (ORYSA) [5] = assay: B1 pre-emergence herbicidal activity
Procedure: as §1

[6] = test system: Triticum aestivium (TRZAW); assay: B1 pre-emergence herbicidal activity
Procedure: as §1

[7] = test system: Alopecurus myosuroides (ALOMY); assay: B2 post-emergence herbicidal activity
Procedure: (§2) Seeds of a variety of test species were sown in standard soil in pots: Triticum aestivium (TRZAW), Oryza sativa (ORYSA), Avena fatua (AVEFA), Alopecurus myosuroides (ALOMY), Echinochloa crus-galli (ECHCG), Lolium perenne (LOLPE). After 8 days cultivation (post-emergence) under controlled conditions in a glasshouse (at 24/16° C., day/night; 14 hours light; 65% humidity), the plants were sprayed with an aqueous spray solution derived from the formulation of the technical active ingredient in acetone/water (50:50) solution containing 0.5% Tween 20 (polyoxyethelyene sorbitan monolaurate, CAS RN 9005-64-5). The test plants were then grown in a glasshouse under controlled conditions (at 24/16° C., day/night; 14 hours light; 65% humidity) and watered twice daily. After 13 days, the test was evaluated (5=total damage to plant; 0=no damage to plant).

Avena fatua (AVEFA) [8] = assay: B2 post-emergence herbicidal activity
Procedure: as §2

[9] = test system: Echinochloa crus-galli (ECHCG); assay: B2 post-emergence herbicidal activity
Procedure: as §2

Lolium perenne (LOLPE) [10] = assay: B2 post-emergence herbicidal activity
Procedure: as §2

Oryza sativa (ORYSA) [11] = assay: B2 post-emergence herbicidal activity
Procedure: as §2

[12] = test system: Triticum aestivium (TRZAW); assay: B2 post-emergence herbicidal activity
Procedure: as §2

Structure (SMILES)	Control of ALOMY after pre-emergence application (damage score 0-5) [1]	Control of AVEFA after pre-emergence application (damage score 0-5) (Avena fatua (AVEFA) [2])	Control of ECHCG after pre-emergence application (damage score 0-5) [3]	Control of LOLPE after pre-emergence application (damage score 0-5) (Lolium perenne (LOLPE) [4])	Control of ORYSA after pre-emergence application (damage score 0-5) (Oryza sativa (ORYSA) [5])	Control of TRZAW after pre-emergence application (damage score 0-5) [6]	Control of ALOMY after post-emergence application (damage score 0-5) [7]	Control of AVEFA after post-emergence application (damage score 0-5) (Avena fatua (AVEFA) [8])	Control of ECHCG after post-emergence application (damage score 0-5) [9]	Control of LOLPE after post-emergence application (damage score 0-5) (Lolium perenne (LOLPE) [10])	Control of ORYSA after post-emergence application (damage score 0-5) (Oryza sativa (ORYSA) [11])	Control of TRZAW after post-emergence application (damage score 0-5) [12]
Cc1nn(-c2cncnc2)cc1N(C)C(=O)NC(C)(C)C [Compound A16]	1	1	2	1	1	1	1	3	4	2	0	1
CN(C(=O)NC(C)(C)C)c1cn(-c2cncc(F)c2)nc1C(F)(F)F [Compound A19]	0	0	2	1	0	0	1	1	4	1	0	0
COC(=O)N(C)c1cn(-c2cncc(F)c2)nc1C(F)(F)F [Compound A27]	0	0	2	0	0	0	0	3	4	2	1	1
CN(C(=O)OC(C)(C)C)c1c(Cl)c(-c2cccnc2)nn1C [Compound A39]	0	4	3	0	1	0	2	1	4	3	1	0
Cc1nn(-c2cncnc2)cc1N(C)C(=O)NC1CCCCC1 [Compound A44]	0	1	1	1	1	1	1	3	1	2	0	0
CN(C(=O)Oc1ccccc1)c1cn(-c2cncc(F)c2)nc1C(F)(F)F [Compound A46]	0	0	0	0	0	0	0	2	2	1	0	0
CCOC(=O)N(C)c1cn(-c2cncc(F)c2)nc1C(F)(F)F [Compound A47]	0	0	1	0	0	0	1	2	4	0	0	1
CN(C(=O)OC(C)(C)C)c1cn(-c2cncc(F)c2)nc1C(F)(F)F [Compound A48]	1	0	3	1	1	1	1	3	4	2	1	1
CN(C(=O)N(C)C(C)(C)C)c1cn(-c2cncnc2)nc1C(F)(F)F [Compound A51]	0	0	1	0	1	0	1	2	2	1	0	2
